According to PubChem BioAssay (NCI):
Where “and” joins values, the source holds several entries; their conditions need not be identical. Identical values can stand only once.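 How tested: cells in 96-well plates exposed to compound for 48 hours at five concentrations. GI50 is the concentration that inhibits growth by half. TGI marks complete inhibition of growth.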

What was measured:
Assay in all cases: inhibition of tumour cell growth, NCI panel, 48 h
[1] = tested on: EKVX NSCLC
[2] = tested on: NCI-H226 lung
[3] = tested on: OVCAR-8 ovarian
[4] = tested on: UACC-257 melanoma
[5] = tested on: NCI-H460 lung
[6] = tested on: HCT-116 colon
[7] = tested on: MALME-3M melanoma
[8] = tested on: OVCAR-5 ovarian
[9] = tested on: MDA-MB-435
[10] = tested on: HCT-15 colon

SMILES	GI50 [1]	TGI [1]	GI50 [2]	TGI [2]	GI50 [3]	TGI [3]	GI50 [4]	TGI [4]	GI50 [5]	TGI [5]	GI50 [6]	TGI [6]	GI50 [7]	TGI [7]	GI50 [8]	TGI [8]	GI50 [9]	TGI [9]	GI50 [10]	TGI [10]
CCOc1cc2ncc(C#N)c(Nc3ccc(OCc4cccc(F)c4)c(Cl)c3)c2cc1NC(=O)CC1CCSS1 (stereo unspecified)	0.74 µM	> 14.3 µM	11 µM	> 25 µM	6.36 µM	> 25 µM	24.5 µM	> 25 µM	0.465 µM	0.948 µM	0.431 µM	1.07 µM	> 22.3 µM	> 25 µM	> 25 µM	> 25 µM	0.596 µM	1.52 µM	2.76 µM	> 25 µM
COc1cc(/C(C#N)=C/c2ccc3c(c2OC)OCO3)cc2c1OCO2	0.652 µM	> 100 µM	0.603 µM	36.4 µM	0.243 µM	> 60.9 µM	0.794 µM	> 100 µM	0.0452 µM	14.2 µM	0.0492 µM	> 35.7 µM	0.264 µM	41.1 µM	0.823 µM	> 80.2 µM	0.0209 µM	0.0664 µM	0.0748 µM	> 100 µM
COc1ccc(N=C2CSc3nnc(-c4cc(F)c(Cl)cc4Cl)n3N2)cc1	4.84 µM	41.7 µM	3.84 µM	38.2 µM	2.33 µM	10.7 µM	1.38 µM	4.16 µM	1.07 µM	12.3 µM	0.43 µM	1.96 µM	0.529 µM	3.77 µM	1.9 µM	4.57 µM	0.208 µM	0.785 µM	1.03 µM	17.2 µM
COc1cc([C@H]2c3cc4c(cc3O[C@@]3(O)COC(=O)[C@@H]23)OCO4)cc(OC)c1OC		> 100 µM		> 100 µM		> 100 µM		> 100 µM		> 100 µM		> 100 µM		> 100 µM		> 100 µM		> 100 µM		> 100 µM
O=C(CCCCCCSc1nc(-c2ccccc2)cc(-c2ccc(Cl)cc2)n1)NO	3.7 µM	14.3 µM	2.59 µM	11.8 µM	1.93 µM	10.2 µM	2.67 µM	11.4 µM	1.22 µM	10.2 µM	1.14 µM	12.4 µM	1.25 µM	9.05 µM	1.56 µM	5.42 µM	2.24 µM	10.9 µM	2.27 µM	14 µM
O=P(O)(CCP(=O)(O)c1ccccc1)c1ccccc1		> 100 µM		> 100 µM		> 100 µM		> 100 µM		> 100 µM		> 100 µM		> 100 µM		> 100 µM		> 100 µM		> 100 µM
COc1ccc2nc(N/N=C(\C)c3ccccn3)cc(C)c2c1	0.134 µM	0.971 µM	0.222 µM	1 µM	0.286 µM	2.53 µM	0.276 µM	1.09 µM	0.118 µM	1.13 µM	0.363 µM	1.13 µM	0.23 µM	0.697 µM	0.571 µM	3.68 µM	0.408 µM	1.69 µM	0.0916 µM	1.65 µM
CNC(=O)c1cc(OC2CCC(NC(=O)Nc3ccc(Cl)c(C(F)(F)F)c3)CC2)ccn1 (stereo unspecified)	7.46 µM	58.7 µM	9.99 µM	25.6 µM	7.89 µM	39.6 µM	5.68 µM	20.3 µM	6.92 µM	28.6 µM	4.35 µM	16.6 µM	9.64 µM	34.3 µM	12.5 µM	31.1 µM	4.16 µM	24.8 µM	6.17 µM	23.6 µM
Cc1ccc(CNc2c3ccccc3nc3ccccc23)cc1	2.06 µM	8.04 µM	1.87 µM	5.12 µM	2.52 µM	10.5 µM	2.17 µM	5.06 µM	2.02 µM	5.26 µM	0.88 µM	6.6 µM	1.66 µM	3.18 µM	1.99 µM	8.08 µM	1.63 µM	3.1 µM	1.8 µM	4.42 µM
C=C1CC2(OC1=O)C(=O)N(CCCCCCCN1C(=O)C3(CC(=C)C(=O)O3)c3ccccc31)c1ccccc12 (stereo unspecified)	9.35 µM	19.3 µM	1 µM	2.76 µM	1.16 µM	5.05 µM	2.14 µM	8.76 µM	2.9 µM	12.3 µM	1.49 µM	5.07 µM	0.955 µM	2.09 µM	7.09 µM	14.2 µM	1.29 µM	3.92 µM	1.3 µM	4.61 µM
O=C(CN1CCN(c2ncccn2)CC1)Nc1ccc(Cl)cc1C(=O)c1ccccc1Cl	> 100 µM	> 100 µM	> 100 µM	> 100 µM	> 100 µM	> 100 µM	> 100 µM	> 100 µM	> 100 µM	> 100 µM	78.7 µM	> 100 µM	> 100 µM	> 100 µM	> 100 µM	> 100 µM	> 100 µM	> 100 µM	> 100 µM	> 100 µM
Cc1ncc(CN=Cc2ccc(Cl)cc2)c(N)n1		> 100 µM		> 100 µM		> 100 µM		> 100 µM		> 100 µM		> 100 µM		> 100 µM		> 100 µM		> 100 µM		> 100 µM
CC(=O)n1c(COS(C)(=O)=O)nc2ccccc21		> 100 µM		> 100 µM		> 100 µM		> 100 µM		> 100 µM		> 100 µM		> 100 µM		> 100 µM		> 100 µM		> 100 µM
C=CCn1c2c(c3ccccc3c1=O)C(=O)c1ccccc1-2		> 100 µM		> 100 µM		> 100 µM		> 100 µM		> 100 µM		> 100 µM		> 100 µM		> 100 µM		> 100 µM		> 100 µM
CS(=O)(=O)CCNCc1nc(-c2ccc3ncnc(Nc4ccc(F)c(Cl)c4)c3c2)cs1	0.0927 µM	> 25 µM	> 18.1 µM	> 25 µM	14.4 µM	> 25 µM	> 25 µM	> 25 µM	18.7 µM	> 25 µM	> 23.9 µM	> 25 µM	> 23.6 µM	> 25 µM	> 25 µM	> 25 µM	18 µM	> 25 µM	17.5 µM	> 25 µM
N=C1C(c2nc(-c3ccc(Br)cc3)cs2)=C(O)CN1Cc1cccnc1	56.6 µM	> 100 µM	11.2 µM	33.3 µM	28.8 µM	> 100 µM	27.8 µM	> 100 µM	12.3 µM	> 100 µM	1.75 µM	24 µM	14.6 µM	> 100 µM	2.66 µM	42.8 µM	15.5 µM	> 100 µM	24.4 µM	> 100 µM
C=C1C(=O)O[C@H]2[C@H]1CC/C(Cn1cc(CNC(=O)Cc3cn(C(=O)c4ccc(Cl)cc4)c4ccc(OC)cc34)nn1)=C\CC[C@@]1(C)O[C@@H]21	2.29 µM	7.33 µM	1.76 µM	3.41 µM	2.62 µM	8.3 µM	1.75 µM	3.39 µM	3.86 µM	13.2 µM	1.19 µM	2.55 µM	1.62 µM	3.18 µM	1.66 µM	3.34 µM	1.71 µM	3.45 µM	2.77 µM	10.7 µM
O=C1NCc2ccc3c(-c4cccc(Cl)c4)c[nH]c3c21	0.381 µM	> 50 µM	28.9 µM	> 50 µM	0.503 µM	> 50 µM	> 42.9 µM	> 50 µM	0.201 µM	> 38.2 µM	0.217 µM	9.07 µM	0.191 µM	> 50 µM	1.62 µM	> 50 µM	0.0604 µM	0.239 µM	0.163 µM	> 50 µM
C[C@@H]1C[C@@H](O)[C@]2(O)O[C@@H]3C[C@@]4(C=O)[C@@H](CC[C@@H]5[C@@H]4CC[C@]4(C)[C@@H](C6=CC(=O)OC6)CC[C@]54O)C[C@H]3O[C@@H]2O1	0.0104 µM	0.0964 µM and 0.104 µM	0.188 µM and 0.0333 µM	0.0857 µM and 0.529 µM and 0.116 µM	0.0393 µM and 0.0143 µM	0.057 µM and 0.13 µM and 0.116 µM	0.0711 µM and 0.0291 µM	0.118 µM and 0.266 µM and 0.122 µM	0.0229 µM	0.0195 µM and 0.0817 µM and 0.0192 µM	0.0197 µM	0.0532 µM and 0.122 µM	0.0256 µM and 0.0163 µM	0.032 µM and 0.0802 µM and 0.0994 µM	0.119 µM and 0.0652 µM	0.102 µM and 0.299 µM and 0.194 µM		0.157 µM	0.06 µM	0.0605 µM and 0.25 µM
O=C(Nc1ccc(N2CCNCC2)cc1)c1[nH]ncc1Nc1ncnc2sc3c(c12)CCC3	0.194 µM	1.94 µM	0.548 µM	2.56 µM	0.36 µM	1.84 µM	0.478 µM	2.43 µM	0.0845 µM	0.978 µM	0.109 µM	0.297 µM	0.121 µM	1.77 µM	0.33 µM	1.92 µM	0.199 µM	1.77 µM	0.224 µM	1.29 µM
COc1ccc2c(c1)[nH]c(=O)c1c3cc(C)c(C)cc3cn21	0.0563 µM	4.67 µM	0.389 µM	21.7 µM	< 0.0179 µM	1.48 µM	12.8 µM	26.4 µM	< 0.018 µM	1.02 µM	< 0.01 µM	0.516 µM	0.161 µM	2.76 µM	0.0561 µM	2.92 µM	< 0.01 µM		< 0.0142 µM	0.363 µM
COc1cc(O)c([C@@H]2C[C@H](CCc3ccc(O)cc3)O[C@H](c3ccc(O)cc3)C2)c(O)c1C(=O)/C=C/c1ccc(O)cc1	4.1 µM	16.7 µM	7.04 µM	21.5 µM	3.17 µM	10.5 µM	3.82 µM	13.2 µM	2.71 µM	7.49 µM	2.74 µM	8.27 µM	3.39 µM	> 30.8 µM	3.81 µM	12.5 µM	3.14 µM	10.8 µM	2.45 µM	6.88 µM
COc1ccc(C(=O)/C(Br)=C/C(=O)O)cc1	28 µM	181 µM and 115 µM	39.1 µM	148 µM and 145 µM		326 µM	21.9 µM	74.4 µM and 85.1 µM	14.4 µM	300 µM and 72 µM	25.9 µM and 25.4 µM	81.3 µM and 65.8 µM	18.8 µM	47.3 µM and 45.2 µM		131 µM and 129 µM	8.18 µM	111 µM and 33.5 µM	10.6 µM	101 µM and 94.4 µM
COc1ccc(-c2nn3ncccc3c2-c2ccnc(Nc3ccc(Cl)c(C(F)(F)F)c3)n2)cc1	7.84 µM	> 25 µM	10.5 µM	> 25 µM	8.58 µM	> 25 µM	11.5 µM	> 25 µM	8.45 µM	> 25 µM	8.01 µM	> 25 µM	10.8 µM	> 25 µM	9.39 µM	> 25 µM	9.69 µM	> 25 µM	9.97 µM	> 25 µM
COC(=O)N[C@H]1CCc2c(Br)c(OC)c(OC)c(OC)c2-c2ccc(SC)c(=O)cc21	< 0.01 µM	> 85.4 µM	< 0.01 µM	10.8 µM	< 0.01 µM	> 77.2 µM	11.4 µM	61.2 µM	< 0.01 µM	10.7 µM	< 0.01 µM	11.5 µM	0.0148 µM	30.5 µM	< 0.01 µM	> 39.6 µM	< 0.01 µM	< 0.01 µM	< 0.01 µM	11.6 µM
COc1ccc2c(c1)/C(=C\c1c(C)nc3sc(C)cn13)C(=O)N2C	16.7 µM	73.8 µM	2.74 µM	15.9 µM	6.14 µM	> 100 µM	21.8 µM	> 100 µM	3.54 µM	36.6 µM	6 µM	> 100 µM	7.09 µM	73.3 µM	19.9 µM	> 100 µM	1.51 µM	5.72 µM	2.73 µM	40.3 µM
